Results as given in EP4603105A1, “PHARMACEUTICAL COMPOSITION CONTAINING CYCLIC COMPOUND HAVING SELECTIVE KRAS INHIBITORY EFFECT AGAINST HRAS AND NRAS” (CHUGAI SEIYAKU KABUSHIKI KAISHA, priority 2022, dated 2024).

How the values were obtained:
[1] = target: GDP-bound KRAS wild-type protein (Homo sapiens, UniProt P01116); experiment: Binding to KRAS by surface plasmon resonance (SPR), dissociation constant KD; details: Single Cycle Kinetics, 1:1 binding model
In short: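 Single-cycle kinetics on GDP-loaded biotin-Avi RAS captured to ~100–300 RU; 75 s ascending injections, 100 µL/min, 30°C. HBS pH 7.4 + 10 mM MgCl2/10 µM GDP/4% DMSO. 1:1 fit, KD.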

[2] = target: GDP-bound NRAS wild-type protein (Homo sapiens, UniProt P01111); experiment: Binding to NRAS by surface plasmon resonance (SPR), KD and KD ratio to KRAS; details: ratio of KD with respect to GDP-bound NRAS wild-type protein to KD with respect to KRAS
GDP-bound NRAS wild-type protein, sequence (P01111 whole entry): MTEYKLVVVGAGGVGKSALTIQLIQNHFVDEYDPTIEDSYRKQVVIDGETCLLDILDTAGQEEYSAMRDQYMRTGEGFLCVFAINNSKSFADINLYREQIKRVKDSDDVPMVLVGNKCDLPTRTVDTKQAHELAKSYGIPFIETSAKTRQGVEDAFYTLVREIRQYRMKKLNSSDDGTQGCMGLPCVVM
In short: (§1)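 Each cycle, GDP-bound biotin-Avi RAS was captured (~100–300 RU), compound concentrations were injected low to high for 75 s each at 100 µL/min, then the chip was regenerated. Buffer: HBS pH 7.4, 10 mM MgCl2, 10 µM GDP, 1 mM DTT, 4% DMSO; 30°C. KD from a 1:1 binding model.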

HRAS wild-type protein = HRAS wild-type protein (Homo sapiens, UniProt P01112); experiment: Binding to HRAS by surface plasmon resonance (SPR), KD and KD ratio to KRAS; details: ratio of KD with respect to HRAS wild-type protein to KD with respect to KRAS
HRAS wild-type protein, sequence (P01112 whole entry): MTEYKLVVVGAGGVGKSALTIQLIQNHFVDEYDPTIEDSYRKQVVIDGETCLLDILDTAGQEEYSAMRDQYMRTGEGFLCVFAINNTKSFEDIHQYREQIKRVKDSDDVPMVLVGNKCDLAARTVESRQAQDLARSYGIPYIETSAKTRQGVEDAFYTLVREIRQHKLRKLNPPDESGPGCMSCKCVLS
In short: as §1

[3] = tested on: human lung cancer strain NCI-H441; experiment: NCI-H441 cell proliferation inhibitory activity (CellTiter-Glo, 4 days); format: cell-based; details: 50% proliferation inhibitory concentration, four days, read-out: NCl-H441 IC50
In short: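 Signal came from […] measured per well once the reagent was added. Beforehand, cells were cultured at 37°C and 5% carbon dioxide on a compound series serially diluted in dimethyl sulfoxide.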

GDP-bound KRAS wild-type protein, sequence (P01116 1-188 isoform P01116-2): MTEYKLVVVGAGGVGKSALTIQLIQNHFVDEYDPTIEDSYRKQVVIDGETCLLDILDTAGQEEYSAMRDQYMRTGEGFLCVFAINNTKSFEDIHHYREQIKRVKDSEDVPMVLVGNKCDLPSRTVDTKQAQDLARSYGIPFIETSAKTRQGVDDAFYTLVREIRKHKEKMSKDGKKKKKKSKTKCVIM

| Structure (SMILES) | Kd [1] [nM] | IC50 [3] [nM] | NRAS /KRAS [2] | HRAS /KRAS (HRAS wild-type protein) |
| --- | --- | --- | --- | --- |
| CCO[C@@H]1C[C@H]2C(=O)NC3(CCC3)C(=O)N(C)[C@@H](C(CC)CC)C(=O)N(C)[C@H](C(=O)N(C)C)CC(=O)N(C)[C@@H](CC3CCCC3)C(=O)N[C@@H]([C@@H](C)CC)C(=O)N(C)CC(=O)N(C)[C@H]3C/C=C\CCN(C3=O)[C@@H](CC3CCC(F)(F)CC3)C(=O)N(C)CC(=O)N[C@@H](CCc3cc(F)c(C(F)(F)F)c(F)c3)C(=O)N2C1 [PP1431] | 0.57 | 41.2 | AA (a compound having 20 or more is denoted as AA) | A (a compound having 10 or more and less than 20 is denoted as A) |
| CCO[C@@H]1C[C@H]2C(=O)NC3(CCC3)C(=O)N(C)[C@@H](C(CC)CC)C(=O)N(C)[C@H](C(=O)N3CCCC3)CC(=O)N(C)[C@@H](C)C(=O)N[C@@H]([C@@H](C)CC)C(=O)N(C)CC(=O)N(C)[C@H]3C/C=C\CCN(C3=O)[C@@H](CC3CCCCC3)C(=O)N(C)CC(=O)N[C@@H](CCc3cc(F)c(C(F)(F)F)c(F)c3)C(=O)N2C1 [PP1434] | 0.69 | 112 | A (a compound having 10 or more and less than 20 is denoted as A) | A (a compound having 10 or more and less than 20 is denoted as A) |
| CCO[C@@H]1C[C@H]2C(=O)NC3(CCCC3)C(=O)N(C)[C@@H](C(CC)CC)C(=O)N(C)[C@H](C(=O)N3CCCC3)CC(=O)N(C)[C@@H](C)C(=O)N[C@@H]([C@@H](C)CC)C(=O)N(C)CC(=O)N(C)[C@H]3C/C=C\CCN(C3=O)[C@@H](CC3CCCCC3)C(=O)N(C)CC(=O)N[C@@H](CCc3cc(F)c(C(F)(F)F)c(F)c3)C(=O)N2C1 [PP1435] | 1.1 | 178 | A (a compound having 10 or more and less than 20 is denoted as A) | A (a compound having 10 or more and less than 20 is denoted as A) |
| CCO[C@@H]1C[C@H]2C(=O)NC3(CCC3)C(=O)N(C)[C@@H](C(CC)CC)C(=O)N(C)[C@H](C(=O)N3CCCC3)CC(=O)N(C)[C@@H](C)C(=O)N[C@@H]([C@@H](C)CC)C(=O)N(C)CC(=O)N(C)[C@H]3C/C=C\CCN(C3=O)[C@@H](CC3CCC(F)(F)CC3)C(=O)N(C)CC(=O)N[C@@H](CCc3cc(F)c(C(F)(F)F)c(F)c3)C(=O)N2C1 [PP1436] | 0.29 | 47.4 | AA (a compound having 20 or more is denoted as AA) | A (a compound having 10 or more and less than 20 is denoted as A) |
| CCO[C@@H]1C[C@H]2C(=O)NC3(CCC3)C(=O)N(C)[C@@H](C(CC)CC)C(=O)N(C)[C@H](C(=O)N3CCCC3)CC(=O)N(C)[C@@H](COC)C(=O)N[C@@H]([C@@H](C)CC)C(=O)N(C)CC(=O)N(C)[C@H]3C/C=C\CCN(C3=O)[C@@H](CC3CCCCC3)C(=O)N(C)CC(=O)N[C@@H](CCc3cc(F)c(C(F)(F)F)c(F)c3)C(=O)N2C1 [PP1438] | 0.55 | 89.4 | AA (a compound having 20 or more is denoted as AA) | A (a compound having 10 or more and less than 20 is denoted as A) |
| CCO[C@@H]1C[C@H]2C(=O)NC3(CCC3)C(=O)N(C)[C@@H](C(CC)CC)C(=O)N(C)[C@H](C(=O)N3CCCC3)CC(=O)N(C)[C@@H](COC)C(=O)N[C@@H]([C@@H](C)CC)C(=O)N(C)CC(=O)N(C)[C@H]3C/C=C\CCN(C3=O)[C@@H](CC3CCC(F)(F)CC3)C(=O)N(C)CC(=O)N[C@@H](CCc3cc(F)c(C(F)(F)F)c(F)c3)C(=O)N2C1 [PP1440] | 0.35 | 69.7 | AA (a compound having 20 or more is denoted as AA) | A (a compound having 10 or more and less than 20 is denoted as A) |
| CCO[C@@H]1C[C@H]2C(=O)NC3(CCCC3)C(=O)N(C)[C@@H](C(CC)CC)C(=O)N(C)[C@H](C(=O)N3CCCC3)CC(=O)N(C)[C@@H](COC)C(=O)N[C@@H]([C@@H](C)CC)C(=O)N(C)CC(=O)N(C)[C@H]3C/C=C\CCN(C3=O)[C@@H](CC3CCC(F)(F)CC3)C(=O)N(C)CC(=O)N[C@@H](CCc3cc(F)c(C(F)(F)F)c(F)c3)C(=O)N2C1 [PP1441] | 0.7 | 87.6 | A (a compound having 10 or more and less than 20 is denoted as A) | A (a compound having 10 or more and less than 20 is denoted as A) |
| CCO[C@@H]1C[C@H]2C(=O)NC3(CCC3)C(=O)N(C)[C@@H](C3CCCC3)C(=O)N(C)[C@H](C(=O)N3CCCC3)CC(=O)N(C)[C@@H](CC)C(=O)N[C@@H]([C@@H](C)CC)C(=O)N(C)CC(=O)N(C)[C@H]3C/C=C\CCN(C3=O)[C@@H](CC3CCC(F)(F)CC3)C(=O)N(C)CC(=O)N[C@@H](CCc3cc(F)c(C(F)(F)F)c(F)c3)C(=O)N2C1 [PP1442] | 0.13 | 48.3 | A (a compound having 10 or more and less than 20 is denoted as A) | A (a compound having 10 or more and less than 20 is denoted as A) |
| CCO[C@@H]1C[C@H]2C(=O)NC3(CCC3)C(=O)N(C)[C@@H](C3CCCC3)C(=O)N(C)[C@H](C(=O)N3CCCC3)CC(=O)N(C)[C@@H](CC)C(=O)N[C@@H]([C@@H](C)CC)C(=O)N(C)CC(=O)N(C)[C@H]3C/C=C\CCN(C3=O)[C@@H](CC3CCCCC3)C(=O)N(C)CC(=O)N[C@@H](CCc3cc(F)c(C(F)(F)F)c(F)c3)C(=O)N2C1 [PP1443] | 0.15 | 34.8 | AA (a compound having 20 or more is denoted as AA) | A (a compound having 10 or more and less than 20 is denoted as A) |

More lines, main results first:

| Kd [1] [nM] | IC50 [3] [nM] | Structure (SMILES) | NRAS /KRAS [2] | HRAS /KRAS (HRAS wild-type protein) |
| --- | --- | --- | --- | --- |
| 0.19 | 103 | CCO[C@@H]1C[C@H]2C(=O)NC3(CCC3)C(=O)N(C)[C@@H](C3CCCC3)C(=O)N(C)[C@H](C(=O)N3CCC3)CC(=O)N(C)[C@@H](CC)C(=O)N[C@@H]([C@@H](C)CC)C(=O)N(C)CC(=O)N(C)[C@H]3C/C=C\CCN(C3=O)[C@@H](CC3CCC(F)(F)CC3)C(=O)N(C)CC(=O)N[C@@H](CCc3cc(F)c(C(F)(F)F)c(F)c3)C(=O)N2C1 [PP1444] | A (a compound having 10 or more and less than 20 is denoted as A) | A (a compound having 10 or more and less than 20 is denoted as A) |
| 0.27 | 92.8 | CCO[C@@H]1C[C@H]2C(=O)NC3(CCC3)C(=O)N(C)[C@@H](C3CCCC3)C(=O)N(C)[C@H](C(=O)N3CCC3)CC(=O)N(C)[C@@H](CC)C(=O)N[C@@H]([C@@H](C)CC)C(=O)N(C)CC(=O)N(C)[C@H]3C/C=C\CCN(C3=O)[C@@H](CC3CCCCC3)C(=O)N(C)CC(=O)N[C@@H](CCc3cc(F)c(C(F)(F)F)c(F)c3)C(=O)N2C1 [PP1445] | A (a compound having 10 or more and less than 20 is denoted as A) | A (a compound having 10 or more and less than 20 is denoted as A) |
| 0.2 | 32 | CCO[C@@H]1C[C@H]2C(=O)NC3(CCC3)C(=O)N(C)[C@@H](C3CCCC3)C(=O)N(C)[C@H](C(=O)N(C)C)CC(=O)N(C)[C@@H](CC3CC3)C(=O)N[C@@H]([C@@H](C)CC)C(=O)N(C)CC(=O)N(C)[C@H]3C/C=C\CCN(C3=O)[C@@H](CC3CCCCC3)C(=O)N(C)CC(=O)N[C@@H](CCc3cc(F)c(C(F)(F)F)c(F)c3)C(=O)N2C1 [PP1446] | A (a compound having 10 or more and less than 20 is denoted as A) | A (a compound having 10 or more and less than 20 is denoted as A) |
| 0.12 | 28.9 | CCO[C@@H]1C[C@H]2C(=O)NC3(CCC3)C(=O)N(C)[C@@H](C3CCCC3)C(=O)N(C)[C@H](C(=O)N(C)C)CC(=O)N(C)[C@@H](CC3CC3)C(=O)N[C@@H]([C@@H](C)CC)C(=O)N(C)CC(=O)N(C)[C@H]3C/C=C\CCN(C3=O)[C@@H](CC3CCC(F)(F)CC3)C(=O)N(C)CC(=O)N[C@@H](CCc3cc(F)c(C(F)(F)F)c(F)c3)C(=O)N2C1 [PP1447] | A (a compound having 10 or more and less than 20 is denoted as A) | A (a compound having 10 or more and less than 20 is denoted as A) |
| 0.096 | 15.2 | C=CC[C@H]1C(=O)N[C@@H]([C@@H](C)CC)C(=O)N(C)CC(=O)N(C)[C@H]2C/C=C\CCN(C2=O)[C@@H](CC2CCC(F)(F)CC2)C(=O)N(C)CC(=O)N[C@@H](CCc2cc(F)c(C(F)(F)F)c(F)c2)C(=O)N2C[C@H](OCC)C[C@H]2C(=O)NC2(CCC2)C(=O)N(C)[C@@H](C2CCCC2)C(=O)N(C)[C@H](C(=O)N(C)C)CC(=O)N1C [PP1454] | A (a compound having 10 or more and less than 20 is denoted as A) | A (a compound having 10 or more and less than 20 is denoted as A) |
